In patent US12139492B2 (Endotarget Inc., priority 2021, dated 2024):

How the values were obtained:
Assay type in all cases: cell-based
[1] = test system: Mino cells; test: Antiproliferative effect, MTS cell viability assay, Mino cells; conditions: Homo sapiens, MINO, Mino mantle cell lymphoma cells; read-out: IC50 (anti-proliferation) Mino cells
Procedure, shortened: (§1)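 MTS read-out, A490 of formazan from metabolically active cells; compound 0–10 μM (0, 0.001, 0.01, 0.1, 1, 10 μM), 72 h exposure.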

[2] = test system: JeKo-1 cells; test: Antiproliferative effect, MTS cell viability assay, JeKo-1 cells; conditions: Homo sapiens; JeKo-1 mantle cell lymphoma cells; read-out: IC50 (anti-proliferation) JeKO-1 cells
Procedure, shortened: as §1

[3] = molecular target: BTK (Homo sapiens, UniProt Q06187); test: BTK degradation, DC50 and Dmax of Table 1 (cell line not given); design: endogenous in cells; conditions: for DC50: concentration giving 50% reduction of BTK expression level
Chain of BTK (Q06187 whole entry): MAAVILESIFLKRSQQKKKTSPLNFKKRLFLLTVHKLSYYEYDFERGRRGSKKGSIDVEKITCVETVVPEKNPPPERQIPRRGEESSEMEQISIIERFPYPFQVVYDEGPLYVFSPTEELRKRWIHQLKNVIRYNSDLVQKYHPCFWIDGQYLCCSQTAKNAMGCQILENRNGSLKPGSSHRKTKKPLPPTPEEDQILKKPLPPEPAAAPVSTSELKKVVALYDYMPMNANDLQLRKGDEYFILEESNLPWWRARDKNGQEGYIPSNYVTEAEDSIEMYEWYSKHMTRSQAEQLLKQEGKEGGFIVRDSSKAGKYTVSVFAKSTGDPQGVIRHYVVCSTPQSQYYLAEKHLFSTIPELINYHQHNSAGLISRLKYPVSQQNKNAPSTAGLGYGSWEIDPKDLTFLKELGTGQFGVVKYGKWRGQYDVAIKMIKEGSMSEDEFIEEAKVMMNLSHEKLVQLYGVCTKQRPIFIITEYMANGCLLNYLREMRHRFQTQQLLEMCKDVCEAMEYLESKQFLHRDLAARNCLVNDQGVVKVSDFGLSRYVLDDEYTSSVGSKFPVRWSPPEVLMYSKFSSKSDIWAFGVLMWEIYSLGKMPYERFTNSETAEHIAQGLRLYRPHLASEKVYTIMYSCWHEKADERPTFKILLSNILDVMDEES

SMILES	IC50 [1]	IC50 [2]	Dmax [3]	DC50 [3]
Nc1ncnc2c1c(-c1ccc(Oc3ccccc3)cc1)nn2[C@@H]1CCCN(C2CCN(CCCN3CCC(c4ccc5c(c4)CN(C4CCC(=O)NC4=O)C5=O)CC3)CC2)C1 (stereo partly drawn) [Compound 154, 3-(5-(1-(3-((R)-3-(4-amino-3-(4-phenoxyphenyl)-1H-pyrazolo[3,4-d]pyrimidin-1-yl)-[1,4′-bipiperidin]-1′-yl)propyl)piperidin-4-yl)-1-oxoisoindolin-2-yl)piperidine-2,6-dione]	> 10000 nM	> 10000 nM	> 75%	> 50 nM
Nc1ncnc2c1c(-c1ccc(Oc3ccccc3)cc1)nn2[C@@H]1CCCN(C2CCN(CCCC3CCN(c4ccc5c(c4)C(=O)N(C4CCC(=O)NC4=O)C5=O)CC3)CC2)C1 (stereo partly drawn) [Compound 155, 5-(4-(3-((R)-3-(4-amino-3-(4-phenoxyphenyl)-1H-pyrazolo[3,4-d]pyrimidin-1-yl)-[1,4′-bipiperidin]-1′-yl)propyl)piperidin-1-yl)-2-(2,6-dioxopiperidin-3-yl)isoindoline-1,3-dione]	> 10000 nM	> 10000 nM	> 50%	> 50 nM
Nc1ncnc2c1c(-c1ccc(Oc3ccccc3)cc1)nn2[C@@H]1CCCN(C2CCN(CCCC3CCN(c4ccc5c(c4)CN(C4CCC(=O)NC4=O)C5=O)CC3)CC2)C1 (stereo partly drawn) [Compound 156, 3-(5-(4-(3-((R)-3-(4-amino-3-(4-phenoxyphenyl)-1H-pyrazolo[3,4-d]pyrimidin-1-yl)-[1,4′-bipiperidin]-1′-yl)propyl)piperidin-1-yl)-1-oxoisoindolin-2-yl)piperidine-2,6-dione]	> 10000 nM	> 10000 nM	> 50%	> 50 nM
Nc1ncnc2c1c(-c1ccc(Oc3ccccc3)cc1)nn2[C@@H]1CCCN(C2CCN(C(=O)N3CCC(c4ccc5c(c4)C(=O)N(C4CCC(=O)NC4=O)C5=O)CC3)CC2)C1 (stereo partly drawn) [Compound 157, 5-(1-((R)-3-(4-amino-3-(4-phenoxyphenyl)-1H-pyrazolo[3,4-d]pyrimidin-1-yl)-[1,4′-bipiperidine]-1′-carbonyl)piperidin-4-yl)-2-(2,6-dioxopiperidin-3-yl)isoindoline-1,3-dione]	> 10000 nM	> 10000 nM	> 50%	> 50 nM
Nc1ncnc2c1c(-c1ccc(Oc3ccccc3)cc1)nn2[C@@H]1CCCN(C2CCN(C(=O)N3CCC(c4ccc5c(c4)CN(C4CCC(=O)NC4=O)C5=O)CC3)CC2)C1 (stereo partly drawn) [Compound 158, 3-(5-(1-((R)-3-(4-amino-3-(4-phenoxyphenyl)-1H-pyrazolo[3,4-d]pyrimidin-1-yl)-[1,4′-bipiperidine]-1′-carbonyl)piperidin-4-yl)-1-oxoisoindolin-2-yl)piperidine-2,6-dione]	> 10000 nM	> 10000 nM	> 50%	> 50 nM
Nc1ncnc2c1c(-c1ccc(Oc3ccccc3)cc1)nn2[C@@H]1CCCN(C2CCN(C(=O)N3CCN(c4ccc5c(c4)CN(C4CCC(=O)NC4=O)C5=O)CC3)CC2)C1 (stereo partly drawn) [Compound 160, 3-(5-(4-((R)-3-(4-amino-3-(4-phenoxyphenyl)-1H-pyrazolo[3,4-d]pyrimidin-1-yl)-[1,4′-bipiperidine]-1′-carbonyl)piperazin-1-yl)-1-oxoisoindolin-2-yl)piperidine-2,6-dione]	1000 to 10000 nM	> 10000 nM	> 50%	> 50 nM
Nc1ncnc2c1c(-c1ccc(Oc3ccccc3)cc1)nn2[C@@H]1CCCN(C2CCN(C(=O)N3CCC(C4CCN(c5ccc6c(c5)CN(C5CCC(=O)NC5=O)C6=O)CC4)CC3)CC2)C1 (stereo partly drawn) [Compound 164, 3-(5-(1′-((R)-3-(4-amino-3-(4-phenoxyphenyl)-1H-pyrazolo[3,4-d]pyrimidin-1-yl)-[1,4′-bipiperidine]-1′-carbonyl)-[4,4′-bipiperidin]-1-yl)-1-oxoisoindolin-2-yl)piperidine-2,6-dione]	1000 to 10000 nM	> 10000 nM	> 75%	10 to 50 nM
Nc1ncnc2c1c(-c1ccc(Oc3ccccc3)cc1)nn2[C@@H]1CCCN(C2CCN(C(=O)N3CCC(N4CCC(c5ccc6c(c5)C(=O)N(C5CCC(=O)NC5=O)C6=O)CC4)CC3)CC2)C1 (stereo partly drawn) [Compound 165, 5-(1′-((R)-3-(4-amino-3-(4-phenoxyphenyl)-1H-pyrazolo[3,4-d]pyrimidin-1-yl)-[1,4′-bipiperidine]-1′-carbonyl)-[1,4′-bipiperidin]-4-yl)-2-(2,6-dioxopiperidin-3-yl)isoindoline-1,3-dione]	1000 to 10000 nM	> 10000 nM	> 75%	10 to 50 nM
Nc1ncnc2c1c(-c1ccc(Oc3ccccc3)cc1)nn2[C@@H]1CCCN(C2CCN(C(=O)N3CCC(N4CCC(c5ccc6c(c5)CN(C5CCC(=O)NC5=O)C6=O)CC4)CC3)CC2)C1 (stereo partly drawn) [Compound 166, 3-(5-(1′-((R)-3-(4-amino-3-(4-phenoxyphenyl)-1H-pyrazolo[3,4-d]pyrimidin-1-yl)-[1,4′-bipiperidine]-1′-carbonyl)-[1,4′-bipiperidin]-4-yl)-1-oxoisoindolin-2-yl)piperidine-2,6-dione]	1000 to 10000 nM	> 10000 nM	> 90%	10 to 50 nM
Nc1ncnc2c1c(-c1ccc(Oc3ccccc3)cc1)nn2[C@@H]1CCCN(C2CCN(C(=O)N3CCC(CC4CCN(c5ccc6c(c5)C(=O)N(C5CCC(=O)NC5=O)C6=O)CC4)CC3)CC2)C1 (stereo partly drawn) [Compound 167, 5-(4-((1-((R)-3-(4-amino-3-(4-phenoxyphenyl)-1H-pyrazolo[3,4-d]pyrimidin-1-yl)-[1,4′-bipiperidine]-1′-carbonyl)piperidin-4-yl)methyl)piperidin-1-yl)-2-(2,6-dioxopiperidin-3-yl)isoindoline-1,3-dione]	1000 to 10000 nM	1000 to 10000 nM	> 90%	10 to 50 nM
Nc1ncnc2c1c(-c1ccc(Oc3ccccc3)cc1)nn2[C@@H]1CCCN(C2CCN(C(=O)N3CCC(CC4CCN(c5ccc6c(c5)CN(C5CCC(=O)NC5=O)C6=O)CC4)CC3)CC2)C1 (stereo partly drawn) [Compound 168, 3-(5-(4-((1-((R)-3-(4-amino-3-(4-phenoxyphenyl)-1H-pyrazolo[3,4-d]pyrimidin-1-yl)-[1,4′-bipiperidine]-1′-carbonyl)piperidin-4-yl)methyl)piperidin-1-yl)-1-oxoisoindolin-2-yl)piperidine-2,6-dione]	< 1000 nM	1000 to 10000 nM	> 90%	10 to 50 nM
Nc1ncnc2c1c(-c1ccc(Oc3ccccc3)cc1)nn2[C@@H]1CCCN(C2CCN(C(=O)N3CCC(CN4CCN(c5ccc6c(c5)CN(C5CCC(=O)NC5=O)C6=O)CC4)CC3)CC2)C1 (stereo partly drawn) [Compound 170, 3-(5-(4-((1-((R)-3-(4-amino-3-(4-phenoxyphenyl)-1H-pyrazolo(3,4-d)pyrimidin-1-yl)-(1,4′-bipiperidine)-1′-carbonyl)piperidin-4-yl)methyl)piperazin-1-yl)-1-oxoisoindolin-2-yl)piperidine-2,6-dione]	1000 to 10000 nM	1000 to 10000 nM	> 90%	10 to 50 nM
Nc1ncnc2c1c(-c1ccc(Oc3ccccc3)cc1)nn2[C@@H]1CCCN(C2CCN(C(=O)N3CCN(CC4CCN(c5ccc6c(c5)C(=O)N(C5CCC(=O)NC5=O)C6=O)CC4)CC3)CC2)C1 (stereo partly drawn) [Compound 171, 5-(4-((4-((R)-3-(4-amino-3-(4-phenoxyphenyl)-1H-pyrazolo[3,4-d]pyrimidin-1-yl)-[1,4′-bipiperidine]-1′-carbonyl)piperazin-1-yl)methyl)piperidin-1-yl)-2-(2,6-dioxopiperidin-3-yl)isoindoline-1,3-dione]	1000 to 10000 nM	1000 to 10000 nM	> 90%	10 to 50 nM
Nc1ncnc2c1c(-c1ccc(Oc3ccccc3)cc1)nn2[C@@H]1CCCN(C2CCN(C(=O)N3CCN(CC4CCN(c5ccc6c(c5)CN(C5CCC(=O)NC5=O)C6=O)CC4)CC3)CC2)C1 (stereo partly drawn) [Compound 172, 3-(5-(4-((4-((R)-3-(4-amino-3-(4-phenoxyphenyl)-1H-pyrazolo[3,4-d]pyrimidin-1-yl)-[1,4′-bipiperidine]-1′-carbonyl)piperazin-1-yl)methyl)piperidin-1-yl)-1-oxoisoindolin-2-yl)piperidine-2,6-dione]	1000 to 10000 nM	1000 to 10000 nM	> 90%	10 to 50 nM
Nc1ncnc2c1c(-c1ccc(Oc3ccccc3)cc1)nn2[C@@H]1CCCN(C2CCN(C(=O)N3CCC(CN4CCC(c5ccc6c(c5)C(=O)N(C5CCC(=O)NC5=O)C6=O)CC4)CC3)CC2)C1 (stereo partly drawn) [Compound 173, 5-(1-((1-((R)-3-(4-amino-3-(4-phenoxyphenyl)-1H-pyrazolo[3,4-d]pyrimidin-1-yl)-[1,4′-bipiperidine]-1′-carbonyl)piperidin-4-yl)methyl)piperidin-4-yl)-2-(2,6-dioxopiperidin-3-yl)isoindoline-1,3-dione]	1000 to 10000 nM	< 1000 nM	> 90%	10 to 50 nM
Nc1ncnc2c1c(-c1ccc(Oc3ccccc3)cc1)nn2[C@@H]1CCCN(C2CCN(C(=O)N3CCC(CN4CCC(c5ccc6c(c5)CN(C5CCC(=O)NC5=O)C6=O)CC4)CC3)CC2)C1 (stereo partly drawn) [Compound 174, 3-(5-(1-((1-((R)-3-(4-amino-3-(4-phenoxyphenyl)-1H-pyrazolo[3,4-d]pyrimidin-1-yl)-[1,4′-bipiperidine]-1′-carbonyl)piperidin-4-yl)methyl)piperidin-4-yl)-1-oxoisoindolin-2-yl)piperidine-2,6-dione]	1000 to 10000 nM	1000 to 10000 nM	> 90%	10 to 50 nM
Nc1ncnc2c1c(-c1ccc(Oc3ccccc3)cc1)nn2[C@@H]1CCCN(C2CCN(C(=O)N3CCN(CCN4CCN(c5ccc6c(c5)C(=O)N(C5CCC(=O)NC5=O)C6=O)CC4)CC3)CC2)C1 (stereo partly drawn) [Compound 175, 5-(4-(2-(4-((R)-3-(4-amino-3-(4-phenoxyphenyl)-1H-pyrazolo[3,4-d]pyrimidin-1-yl)-[1,4′-bipiperidine]-1′-carbonyl)piperazin-1-yl)ethyl)piperazin-1-yl)-2-(2,6-dioxopiperidin-3-yl)isoindoline-1,3-dione]	1000 to 10000 nM	1000 to 10000 nM	> 90%	10 to 50 nM
